# Reference: PubChem BioAssay AID2060619 (Molecular Pharmacology Branch, DTP, NCI, 2025)
# Tested on: 323965-272-R-J2-PDC complex spheroid viability
# Assay: Anticancer human tumor 323965-272-R-J2-PDC patient-derived pancreatic carcinoma cell line growth inhibition [CLK]
# Settings: for IC50: curve of first compound; for viability, T/C: stronger effect = lower value
# Description: A high-throughput screen of multi-cell type tumor spheroids was designed to identify active combinations of […] and targeted small molecules. Complex spheroids include a stromal component modeled by human endothelial cells (HUVEC) and fibroblasts modeled by human mesenchymal stem cells (MSCs). The concentration ranges selected for each drug and investigational agent were based upon clinically achievable concentrations if the clinical Cmax of the agent was known.
# Compounds. The drugs and investigational agents: cirtuvivint (SM08502; NSC835563), CC-671 (NSC850746), vemurafenib (NSC761431), tapotoclax (NSC804041), sotorasib (NSC818433), adagrasib (NSC831453), MRTX-1133 (NSC836407), BAY2416964 (NSC825713), copanlisib (NSC816437), inavolisib (NSC800729), abemaciclib (NSC768073), osimertinib (NSC779217), entinostat (NSC756642), eltanexor (KPT-8602, NSC794443), venetoclax (NSC766270), ceralasertib (NSC777638), bortezomib (NSC756655), olaparib (NSC753686), talazoparib (NSC767125), alisertib (NSC759677), peposertib (NSC802822), gemcitabine (NSC613327), 5-fluorouracil (NSC19893), SN-38 (NSC673596), oxaliplatin (NSC266046), paclitaxel (NSC125973), and doxorubicin (NSC123127), were obtained from the National Cancer Institute (NCI) Developmental Therapeutics Program Chemical Repository. The FDA-approved anticancer drug set is available from the Developmental Therapeutics Program at https://dtp.cancer.gov/organization/dscb/obtaining/available plates.htm. […] The stock solutions were prepared in dimethyl sulfoxide (DMSO, Sigma-Aldrich, St. Louis, MO, cat. D2650), except for the platinum complexes which were prepared in saline (Quality Biological, Gaithersburg, MD, cat. 114-055-101), at 800-fold the tested concentration and stored at -70 degrees C prior to their use. All drugs and investigational agents were tested over a range starting from a high concentration at or near the clinical Cmax and decreasing in half-log increments. If the clinical Cmax for an agent had not been determined, the highest concentration tested was 10 microM.
# Cell Culture. All cells were maintained in an incubator at 37 degrees C and 5% CO2 with 95% humidity. The PDC lines were cultured according to standard operating procedures established by the NCI PDMR. Briefly, all PDCs were thawed and cultured in Matrigel-coated flasks prepared with a working solution of 1X Ham's F-12 nutrient mix, without supplementation (Invitrogen, Waltham, MA, cat. 11765054), 100 U/mL penicillin-streptomycin (Invitrogen, cat. 15140122), and 2.5% Matrigel (Corning Inc., Corning, NY, cat. 354248) for the first three passages. The 947758-054-R-J2-PDC line was cultured in 6B/Colon 1A media, which includes advanced DMEM/F-12 (Thermo Fisher Scientific, cat. 12634028), 10 mM HEPES (Thermo Fisher Scientific, cat. 15630080), 1X GlutaMAX supplement (Thermo Fisher Scientific, cat. 35050061), 0.1 mg/mL primocin (InvivoGen, cat. ant-pm-2), 10% defined fetal bovine serum, heat inactivated (HyClone Laboratories Inc., cat. SH30070.03HI), 1.25 mM N-Acetyl-L-cysteine (Sigma-Aldrich, cat. A9165), 10 mM nicotinamide (Sigma-Aldrich, cat. N0636), 1X B-27 supplement (Thermo Fisher Scientific, cat. 17504044), 1X N-2 supplement (Thermo Fisher Scientific, cat. 17502048), and 10 microM Y-27632 dihydrochloride (Tocris Bioscience, cat. 1254). The 876862-298-R-J1-PDC was cultured in 6E media, which includes all 6B/Colon 1A media components plus 50% L-WRN conditioned media (ATCC, cat. CRL-3276), 50 ng/mL recombinant human EGF recombinant protein (hEGF; Thermo Fisher Scientific, cat. PHG0311), 10 ng/mL recombinant human fibroblast growth factor 10 (hGFG-10; PeproTech, cat. 100-26), 1 ng/mL recombinant human fibroblast growth factor 2 (hFGF-2; PeproTech, cat. 100-18B), and 1 µM prostaglandin E2 (PGE2; Tocris, cat. 2296). The 227483-062-R1-J1-PDC line was cultured in Panc media, containing all 6E components except hFGF-2, with the addition of 500 nM SB-431542 (Selleckchem, cat. S1067) and 10 nM gastrin (Tocris, cat. 3006). […]
# [1] = second compound 0.0316 µM, first compound 0.0316 µM
# [2] = second compound 0.0316 µM, first compound 0.1 µM
# [3] = second compound 0.0316 µM, first compound 0.316 µM
# [4] = second compound 0.0316 µM, first compound 1 µM
# [5] = second compound 0.0316 µM, first compound 3.16 µM
# [6] = second compound 0.0316 µM, first compound 10 µM
# [7] = second compound 0.1 µM, first compound 0.0316 µM
# [8] = second compound 0.1 µM, first compound 0.1 µM
# [9] = second compound 0.1 µM, first compound 0.316 µM
# [10] = second compound 0.1 µM, first compound 1 µM
# [11] = second compound 0.1 µM, first compound 3.16 µM
# [12] = second compound 0.1 µM, first compound 10 µM
# [13] = second compound 0.316 µM, first compound 0.0316 µM
# [14] = second compound 0.316 µM, first compound 0.1 µM
# [15] = second compound 0.316 µM, first compound 0.316 µM
# [16] = second compound 0.316 µM, first compound 1 µM
# [17] = second compound 0.316 µM, first compound 3.16 µM
# [18] = second compound 0.316 µM, first compound 10 µM
# [19] = second compound 1 µM, first compound 0.0316 µM
# [20] = second compound 1 µM, first compound 0.1 µM
# [21] = second compound 1 µM, first compound 0.316 µM
# [22] = second compound 1 µM, first compound 1 µM
# [23] = second compound 1 µM, first compound 3.16 µM
# [24] = second compound 1 µM, first compound 10 µM
# [25] = second compound 3.16 µM, first compound 0.0316 µM
# [26] = second compound 3.16 µM, first compound 0.1 µM
# [27] = second compound 3.16 µM, first compound 0.316 µM
# [28] = second compound 3.16 µM, first compound 1 µM
# [29] = second compound 3.16 µM, first compound 3.16 µM
# [30] = second compound 3.16 µM, first compound 10 µM
# [31] = second compound 10 µM, first compound 0.0316 µM
# [32] = second compound 10 µM, first compound 0.1 µM
# [33] = second compound 10 µM, first compound 0.316 µM
# [34] = second compound 10 µM, first compound 1 µM
# [35] = second compound 10 µM, first compound 3.16 µM
# [36] = second compound 10 µM, first compound 10 µM
# 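Note: spheroids exposed to agents for seven days before readout.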
# 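Throughout, for viability, T/C: percent of DMSO vehicle control wells so 100% = untreated growth.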
compound,measurement,setting,value
CC1(C)CCC(CN2CCN(c3ccc(C(=O)NS(=O)(=O)c4ccc(NCC5CCOCC5)c([N+](=O)[O-])c4)c(Oc4cnc5[nH]ccc5c4)c3)CC2)=C(c2ccc(Cl)cc2)C1 + CNC(=O)c1ccc(Nc2nc(OC3CCCC3)c3c(-c4ccc5nc(C)oc5c4)c[nH]c3n2)c(OC)c1,IC50,second compound 0.0316 µM,5550 nM
same,IC50,second compound 0.1 µM,4210 nM
same,IC50,second compound 0.316 µM,2300 nM
same,IC50,second compound 1 µM,< 31.6 nM
same,IC50,second compound 3.16 µM,< 31.6 nM
same,IC50,second compound 10 µM,< 31.6 nM
same,"viability, T/C",[1],102%
same,"viability, T/C",[2],93.4%
same,"viability, T/C",[3],98.7%
same,"viability, T/C",[4],93%
same,"viability, T/C",[5],89.9%
same,"viability, T/C",[6],8.02%
same,"viability, T/C",[7],87.4%
same,"viability, T/C",[8],94.4%
same,"viability, T/C",[9],78.8%
same,"viability, T/C",[10],80.2%
same,"viability, T/C",[11],65.6%
same,"viability, T/C",[12],7.13%
same,"viability, T/C",[13],67.7%
same,"viability, T/C",[14],69%
same,"viability, T/C",[15],64.7%
same,"viability, T/C",[16],58.7%
same,"viability, T/C",[17],47.3%
same,"viability, T/C",[18],7.29%
same,"viability, T/C",[19],44.1%
same,"viability, T/C",[20],45.9%
same,"viability, T/C",[21],45.2%
same,"viability, T/C",[22],42%
same,"viability, T/C",[23],36.1%
same,"viability, T/C",[24],7.06%
same,"viability, T/C",[25],39.5%
same,"viability, T/C",[26],41.8%
same,"viability, T/C",[27],43.5%
same,"viability, T/C",[28],36.1%
same,"viability, T/C",[29],37%
same,"viability, T/C",[30],7.39%
same,"viability, T/C",[31],36.7%
same,"viability, T/C",[32],36.2%
same,"viability, T/C",[33],41.5%
same,"viability, T/C",[34],33.7%
same,"viability, T/C",[35],32.6%
same,"viability, T/C",[36],8.69%
CCCS(=O)(=O)Nc1ccc(F)c(C(=O)c2c[nH]c3ncc(-c4ccc(Cl)cc4)cc23)c1F + CN1CCN(c2cc(C(=O)Nc3cc4cc(-c5cnn(C)c5)ccc4cn3)ccn2)CC1,IC50,second compound 0.0316 µM,> 10000 nM
same,IC50,second compound 0.1 µM,> 10000 nM
same,IC50,second compound 0.316 µM,< 31.6 nM
same,IC50,second compound 1 µM,< 31.6 nM
same,IC50,second compound 3.16 µM,< 31.6 nM
same,IC50,second compound 10 µM,< 31.6 nM
same,"viability, T/C",[1],97.9%
same,"viability, T/C",[2],102%
same,"viability, T/C",[3],102%
same,"viability, T/C",[4],111%
same,"viability, T/C",[5],101%
same,"viability, T/C",[6],78.7%
same,"viability, T/C",[7],68.4%
same,"viability, T/C",[8],68.1%
same,"viability, T/C",[9],80.1%
same,"viability, T/C",[10],83%
same,"viability, T/C",[11],84.7%
same,"viability, T/C",[12],66.5%
same,"viability, T/C",[13],28.1%
same,"viability, T/C",[14],26.3%
same,"viability, T/C",[15],30.5%
same,"viability, T/C",[16],34.7%
same,"viability, T/C",[17],32.3%
same,"viability, T/C",[18],35%
same,"viability, T/C",[19],4.7%
same,"viability, T/C",[20],3.95%
same,"viability, T/C",[21],3.77%
same,"viability, T/C",[22],4.38%
same,"viability, T/C",[23],4.19%
same,"viability, T/C",[24],6.54%
same,"viability, T/C",[25],4.04%
same,"viability, T/C",[26],4.11%
same,"viability, T/C",[27],4.16%
same,"viability, T/C",[28],4.42%
same,"viability, T/C",[29],5.61%
same,"viability, T/C",[30],6.54%
same,"viability, T/C",[31],4.15%
same,"viability, T/C",[32],4.79%
same,"viability, T/C",[33],4.2%
same,"viability, T/C",[34],4.29%
same,"viability, T/C",[35],4.87%
same,"viability, T/C",[36],5.79%
